Source: patent publication US8541449B2, “Substituted isoquinolines and isoquinolinones as Rho kinase inhibitors” (Sanofi, priority 2008, dated 2013)

Target: T1, human recombinant ROCK II (Homo sapiens, UniProt O75116)
T1 construct: N-terminal His6-tagged recombinant human ROCK-II residues 11-552; His6 (N); purchased Millipore GmbH, Schwalbach, Germany
Assay: Determination of Rho kinase inhibition (Caliper peptide phosphorylation assay)
Format: biochemical
Conditions: 60 min at 32° C., negative decadal logarithm of the IC50
Experimental: Determination of Rho Kinase Inhibition
To measure Rho-kinase inhibition, IC50 values were determined according to the following protocol:
Active human recombinant ROCK II (N-terminal His6-tagged recombinant human ROCK-II residues 11-552) was purchased from Millipore GmbH, Schwalbach, Germany. The peptide substrate, Fluorescein-[…]-COOH, was obtained from JPT Peptide Technologies, Berlin, Germany. Adenosine-5′-triphosphate (ATP), bovine serum albumine (BSA), dimethylsulphoxide (DMSO), 4-(2-Hydroxyethyl)piperazine-1-ethanesulfonic acid (Hepes), Brij-35, dithiothreitol (DTT) and Pluronic F-68 were purchased from Sigma-Aldrich, Munich, Germany. Tris(hydroxymethyl)-aminomethane (Tris), magnesium chloride, NaOH, 1M HCl and EDTA were obtained from Merck Biosciences, Darmstadt, Germany. “Complete” protease inhibitor was from Roche Diagnostics, Mannheim, Germany.
Test compounds were diluted to the appropriate concentrations in buffer 1 (25 mM Tris-HCl, pH 7.4, 5 mM MgCl2, 2 mM DTT, 0.02% (w/v) BSA, 0.01% Pluronic F-68 and 3% DMSO). The ROCK II enzyme was diluted to a concentration of 100 ng/mL in buffer 2 (25 mM Tris-HCl, pH 7.4, 5 mM MgCl2, 2 mM DTT and 0.02% (w/v) BSA). The peptide substrate and ATP were diluted to concentrations of 3 μM and 120 μM, respectively, in the buffer 2. Two μl of the compound solution were mixed with 2 μl of the diluted enzyme in a 384-well small volume microtiter plate (Greiner, Bio-One, Frickenhausen, Germany), and the kinase reaction was initiated by addition of 2 μl of the solution containing peptide substrate and ATP. After 60 min incubation at 32° C., the reaction was stopped by addition of 20 μl of a solution containing 100 mM Hepes-NaOH, pH 7.4, 0.015% (v/v) Brij-35, 45 mM EDTA and 0.227% chip coating reagent 1 (Caliper Lifescience Inc, Hopkinton, Mass.). Phosphorylation of the substrate peptide was then detected on a Caliper 3000 instrument essentially as described by Pommereau et al (J. Biomol. Screening 9(5), 409-416, 2004). Separation conditions were as follows: Pressure −1.3 psi, upstream voltage −1562 V, downstream voltage −500 V, sample sip time 200 ms. Positive controls (buffer 1 instead of compound) and negative controls (buffer 1 instead of compound and buffer 2 instead of ROCK II) were run in parallel on each plate.
The following products/compounds were tested in said assay by using the respective form (salt or free base) obtained as in the examples described above and the following activities were measured

T1 sequence (O75116 11-552): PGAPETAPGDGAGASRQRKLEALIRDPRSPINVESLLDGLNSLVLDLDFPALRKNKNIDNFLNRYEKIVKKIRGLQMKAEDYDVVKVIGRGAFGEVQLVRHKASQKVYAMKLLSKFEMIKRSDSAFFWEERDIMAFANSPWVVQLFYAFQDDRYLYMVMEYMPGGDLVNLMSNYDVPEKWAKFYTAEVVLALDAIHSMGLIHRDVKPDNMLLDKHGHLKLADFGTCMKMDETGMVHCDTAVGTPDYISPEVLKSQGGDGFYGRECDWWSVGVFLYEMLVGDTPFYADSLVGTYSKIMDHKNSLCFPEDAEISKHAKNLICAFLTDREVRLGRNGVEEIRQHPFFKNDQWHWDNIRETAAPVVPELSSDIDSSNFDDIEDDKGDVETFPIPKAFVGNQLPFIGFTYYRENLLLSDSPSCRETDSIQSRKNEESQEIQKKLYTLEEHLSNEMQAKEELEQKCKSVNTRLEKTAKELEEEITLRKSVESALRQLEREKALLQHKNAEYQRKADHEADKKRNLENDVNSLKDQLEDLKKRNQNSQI

pIC50	IC50 [nM]	Structure (SMILES)
+++++ (6.0≦pIC50<7.0)	–	CCC(N)[C@]1(c2ccc(F)c(F)c2)CC[C@H](Oc2cc3cc[nH]c(=O)c3cc2C)CC1 (stereo partly drawn) [Example 65, cis-6-[4-(1-Amino-propyl)-4-(3,4-difluoro-phenyl)-cyclohexyloxy]-7-methyl-2H-isoquinolin-1-one]
++++++ (7.0≦pIC50<8.0)	–	CCC(N)[C@]1(c2ccccc2)CC[C@H](Oc2cc3ccnc(N)c3cc2Cl)CC1 (stereo partly drawn) [Example 111, cis-6-[4-(1-Amino-propyl)-4-phenyl-cyclohexyloxy]-7-chloro-isoquinolin-1-ylamine]
+++++ (6.0≦pIC50<7.0)	–	COCCC(N)[C@]1(c2ccc(F)cc2)CC[C@H](Oc2cc3cc[nH]c(=O)c3cc2Cl)CC1 (stereo partly drawn) [Example 115, cis-6-[4-(1-Amino-3-methoxy-propyl)-4-(4-fluoro-phenyl)-cyclohexyloxy]-7-chloro-2H-isoquinolin-1-one]
–	100 to 1000	CCC(N)(CC)C1CCC(Oc2cc3cc[nH]c(=O)c3cc2Cl)CC1 (single isomer, unassigned) [Example 119, 6-{4-[1-Amino-1-ethyl-propyl]-cyclohexyloxy}-7-chloro-2H-isoquinolin-1-one]
+++++ (6.0≦pIC50<7.0)	–	CCC(N)[C@]1(c2ccccc2)CC[C@H](Oc2cc3ccncc3cc2Cl)CC1 (stereo partly drawn) [Example 89, cis-1-[4-(7-Chloro-iso-quinolin-6-yloxy)-1-phenyl-cyclohexyl]-propylamine]
+++++ (6.0≦pIC50<7.0)	–	CCC(N)[C@]1(c2ccccc2)CC[C@H](Oc2ccc3cnccc3c2Cl)CC1 (stereo partly drawn) [Example 92, cis-1-[4-(5-Chloro-isoquinolin-6-yloxy)-1-phenyl-cyclohexyl]-propylamine]
+++++ (6.0≦pIC50<7.0)	–	CCC(N)[C@]1(c2ccccc2)C[C@H]2C[C@@H]1CC2Oc1cc2cc[nH]c(=O)c2cc1Cl (stereo partly drawn) [Example 101, 6-[(1R,4R,5R)-5-(1-Amino-propyl)-5-phenyl-bicyclo[2.2.1]hept-2-yloxy]-7-chloro-2H-isoquinolin-1-one]
–	100 to 1000	NC(c1ccccc1)C1CCC(Oc2cc3cc[nH]c(=O)c3cc2Cl)CC1 (single isomer, unassigned) [Example 40, 6-[4-(Amino-phenyl-methyl)-cyclohexyloxy]-7-chloro-2H-isoquinolin-1-one]
+++++ (6.0≦pIC50<7.0)	–	CCC(N)[C@]1(c2ccccc2)CC[C@H](Oc2cc3ccncc3cc2Br)CC1 (stereo partly drawn) [Example 94, cis-1-[4-(7-Bromo-isoquinolin-6-yloxy)-1-phenyl-cyclohexyl]-propylamine]
+++++ (6.0≦pIC50<7.0)	–	CCC(N)[C@]1(c2ccc(F)c(F)c2)CC[C@H](Oc2c(F)cc3c(=O)[nH]ccc3c2C)CC1 (stereo partly drawn) [Example 67, cis-6-[4-(1-Amino-propyl)-4-(3,4-difluoro-phenyl)-cyclohexyloxy]-7-fluoro-5-methyl-2H-isoquinolin-1-one]
+++++ (6.0≦pIC50<7.0)	–	CCC(N)[C@]1(c2ccccc2)CC[C@H](Oc2c(C)cc3cnccc3c2C)CC1 (stereo partly drawn) [Example 90, cis-1-[4-(5,7-Dimethyl-isoquinolin-6-yloxy)-1-phenyl-cyclohexyl]-propylamine]
–	100 to 1000	CC(N)(C1CCCC1)C1CCC(Oc2cc3cc[nH]c(=O)c3cc2Cl)CC1 (single isomer, unassigned) [Example 118, 6-{4-[1-Amino-1-cyclopentyl-ethyl]-cyclohexyl-oxy}-7-chloro-2H-isoquinolin-1-one]
